Laboratory results as given in patent US12662489B2 (Sitryx Therapeutics Limited, priority 2023, dated 2026).

How the values were obtained:
[1] = biological target: T1, MTHFD2 recombinant human enzyme (Homo sapiens, UniProt P13995); assay: MTHFD2 inhibition assay (NAD(P)H-Glo luminescence); settings: for MTHFD1/MTHFD2 IC50 ratio: selectivity of MTHFD2 inhibition over MTHFD1, band
T1 sequence (P13995 36-350): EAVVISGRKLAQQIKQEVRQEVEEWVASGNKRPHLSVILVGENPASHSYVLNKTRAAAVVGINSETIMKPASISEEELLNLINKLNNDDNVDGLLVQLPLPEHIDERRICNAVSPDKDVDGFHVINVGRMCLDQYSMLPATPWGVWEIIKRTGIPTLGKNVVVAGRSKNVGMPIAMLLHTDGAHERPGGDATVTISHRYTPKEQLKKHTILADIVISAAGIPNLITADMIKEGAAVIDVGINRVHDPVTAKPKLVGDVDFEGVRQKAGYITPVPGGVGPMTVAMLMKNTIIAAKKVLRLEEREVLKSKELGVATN

[2] = biological target: T2, MTHFD1 recombinant human enzyme (Homo sapiens, UniProt P11586); assay: MTHFD1 inhibition assay (NAD(P)H-Glo luminescence); settings: MTHFD1 IC50, recombinant human enzyme 200 nM, NADP, band
T2 sequence (P11586 2-291 limits assumed): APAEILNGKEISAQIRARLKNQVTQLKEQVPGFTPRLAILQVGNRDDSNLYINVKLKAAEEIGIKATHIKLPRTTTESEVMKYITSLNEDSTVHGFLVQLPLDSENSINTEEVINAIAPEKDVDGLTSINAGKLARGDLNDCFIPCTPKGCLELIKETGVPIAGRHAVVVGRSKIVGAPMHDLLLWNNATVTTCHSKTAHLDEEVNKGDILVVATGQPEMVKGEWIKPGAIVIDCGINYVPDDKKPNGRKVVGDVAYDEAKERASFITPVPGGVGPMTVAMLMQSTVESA

| Compound | IC50 [1] | MTHFD1/MTHFD2 IC50 ratio [1] | IC50 [2] |
| --- | --- | --- | --- |
| COC[C@H]1CN(c2ccc3c4c(c(=O)oc3c2C)CN(C(=O)c2cc(OC3CCCC3)c(C(=O)NS(=O)(=O)C3(C)CC3)c(C(F)(F)F)c2)CC4)CCN1C [Example 101, (R)-2-(cyclopentyloxy)-4-(8-(3-(methoxymethyl)-4-methylpiperazin-1-yl)-7-methyl-5-oxo-1,3,4,5-tetrahydro-2H-chromeno[3,4-c]pyridine-3-carbonyl)-N-((1-methylcyclopropyl)sulfonyl)-6-(trifluoromethyl)benzamide] | 100 to 1000 nM | H (>9.0 to 30) | 1000 to 5000 nM |
| COC[C@H]1CN(c2cc(C)c3c4c(c(=O)oc3c2C)CN(C(=O)c2cc(OC3CCCC3)c(C(=O)NS(=O)(=O)N(C)C)c(C(F)(F)F)c2)CC4)CCN1C [Example 153, (R)-2-(cyclopentyloxy)-N-(N,N-dimethylsulfamoyl)-4-(8-(3-(methoxymethyl)-4-methylpiperazin-1-yl)-7,10-dimethyl-5-oxo-1,3,4,5-tetrahydro-2H-chromeno[3,4-c]pyridine-3-carbonyl)-6-(trifluoromethyl)benzamide] | 10 to 100 nM | H (>9.0 to 30) | 1000 to 5000 nM |
| COC[C@H]1CN(c2cc(C)c3c4c(c(=O)oc3c2C)CN(C(=O)c2ccc(C(=O)NS(=O)(=O)N(C)C)c(N3CCCC(F)(F)C3)c2F)CC4)CCN1C [Example 78, (R)-2-(3,3-difluoropiperidin-1-yl)-N-(N,N-dimethylsulfamoyl)-3-fluoro-4-(8-(3-(methoxymethyl)-4-methylpiperazin-1-yl)-7,10-dimethyl-5-oxo-1,3,4,5-tetrahydro-2H-chromeno[3,4-c]pyridine-3-carbonyl)benzamide] | 1 to 10 nM | – | 1 to 10 nM |
| CCOc1cc(C(=O)N2CCc3c(c(=O)oc4c(C)c(N5CCN(C)[C@@H](COC)C5)cc(Cl)c34)C2)c(F)cc1C(=O)NS(=O)(=O)N1CC2CCC(C1)O2 [Example 301, N-((8-oxa-3-azabicyclo[3.2.1]octan-3-yl)sulfonyl)-4-(10-chloro-8-((R)-3-(methoxymethyl)-4-methylpiperazin-1-yl)-7-methyl-5-oxo-1,3,4,5-tetrahydro-2H-chromeno[3,4-c]pyridine-3-carbonyl)-2-ethoxy-5-fluorobenzamide] | 10 to 100 nM | J (>30) | 100 to 1000 nM |
| COC[C@H]1CN(c2ccc3c4c(c(=O)oc3c2C)CN(C(=O)c2ccc(C(=O)NS(=O)(=O)N3C5CCC3CC5)c(OC3CCC3)c2F)CC4)CCN1C [Example 176, (R)—N-((7-azabicyclo[2.2.1]heptan-7-yl)sulfonyl)-2-cyclobutoxy-3-fluoro-4-(8-(3-(methoxymethyl)-4-methylpiperazin-1-yl)-7-methyl-5-oxo-1,3,4,5-tetrahydro-2H-chromeno[3,4-c]pyridine-3-carbonyl)benzamide] | 10 to 100 nM | F (<3) | 10 to 100 nM |
| COC[C@H]1CN(c2ccc3c4c(c(=O)oc3c2C)CN(C(=O)c2ccc(C(=O)NS(=O)(=O)C3(C)CC3)c(N3C5CCC3CC5)c2)CC4)CCN1C [Example 17, (R)-2-(7-azabicyclo[2.2.1]heptan-7-yl)-4-(8-(3-(methoxymethyl)-4-methylpiperazin-1-yl)-7-methyl-5-oxo-1,3,4,5-tetrahydro-2H-chromeno[3,4-c]pyridine-3-carbonyl)-N-((1-methylcyclopropyl)sulfonyl)benzamide] | 10 to 100 nM | F (<3) | 1 to 10 nM |
| COC[C@H]1CN(c2cc(C)c3c4c(c(=O)oc3c2C)CN(C(=O)c2cc(N(C)C)c(C(=O)NS(=O)(=O)N3CCCC3)cc2C(F)(F)F)CC4)CCN1C [Example 152, (R)-2-(dimethylamino)-4-(8-(3-(methoxymethyl)-4-methylpiperazin-1-yl)-7,10-dimethyl-5-oxo-1,3,4,5-tetrahydro-2H-chromeno[3,4-c]pyridine-3-carbonyl)-N-(pyrrolidin-1-ylsulfonyl)-5-(trifluoromethyl)benzamide] | 100 to 1000 nM | H (>9.0 to 30) | > 5000 nM |
| COC[C@H]1CN(c2cc(C)c3c4c(c(=O)oc3c2C)CN(C(=O)c2cc(OC3CCCC3)c(C(=O)NS(=O)(=O)N(C)C)cc2F)CC4)CCN1C [Example 110, (R)-2-(cyclopentyloxy)-N-(N,N-dimethylsulfamoyl)-5-fluoro-4-(8-(3-(methoxymethyl)-4-methylpiperazin-1-yl)-7,10-dimethyl-5-oxo-1,3,4,5-tetrahydro-2H-chromeno[3,4-c]pyridine-3-carbonyl)benzamide] | 10 to 100 nM | F (<3) | 10 to 100 nM |
| COC[C@H]1CN(c2cc(C)c3c4c(c(=O)oc3c2C)CN(C(=O)c2ccc(C(=O)NS(=O)(=O)C3(C)CC3)c(N(C)C)c2)CC4)CCN1C [Example 79, (R)-2-(dimethylamino)-4-(8-(3-(methoxymethyl)-4-methylpiperazin-1-yl)-7,10-dimethyl-5-oxo-1,3,4,5-tetrahydro-2H-chromeno[3,4-c]pyridine-3-carbonyl)-N-((1-methylcyclopropyl)sulfonyl)benzamide] | 1 to 10 nM | H (>9.0 to 30) | 10 to 100 nM |
| Cc1c(N2CCN3CCOC[C@H]3C2)cc(C)c2c3c(c(=O)oc12)CN(C(=O)c1ccc(C(=O)NS(=O)(=O)N2CCCC2)c(OC2CCC2)c1)CC3 [Example 21, (R)-2-cyclobutoxy-4-(8-(hexahydropyrazino[2,1-c][1,4]oxazin-8(1 H)-yl)-7,10-dimethyl-5-oxo-1,3,4,5-tetrahydro-2H-chromeno[3,4-c]pyridine-3-carbonyl)-N-(pyrrolidin-1-ylsulfonyl)benzamide] | 100 to 1000 nM | F (<3) | 100 to 1000 nM |

Further lines, results first:

| IC50 [1] | MTHFD1/MTHFD2 IC50 ratio [1] | IC50 [2] | Compound |
| --- | --- | --- | --- |
| 10 to 100 nM | J (>30) | 100 to 1000 nM | COC[C@H]1CN(c2cc(Cl)c3c4c(c(=O)oc3c2C)CN(C(=O)c2cc(OC3CC3)c(C(=O)NS(=O)(=O)N(C)C)cc2F)CC4)CCN1C [Example 306, (R)-4-(10-chloro-8-(3-(methoxymethyl)-4-methylpiperazin-1-yl)-7-methyl-5-oxo-1,3,4,5-tetrahydro-2H-chromeno[3,4-c]pyridine-3-carbonyl)-2-cyclopropoxy-N-(N,N-dimethylsulfamoyl)-5-fluorobenzamide] |
| 100 to 1000 nM | H (>9.0 to 30) | 1000 to 5000 nM | COC[C@H]1CN(c2ccc3c4c(c(=O)oc3c2C)CN(C(=O)c2cc(N3CC5CC5C3)c(C(=O)NS(=O)(=O)N(C)C)c(C(F)(F)F)c2)CC4)CCN1C (stereo partly drawn) [Example 118, 2-(3-azabicyclo[3.1.0]hexan-3-yl)-N-(N,N-dimethylsulfamoyl)-4-(8-((R)-3-(methoxymethyl)-4-methylpiperazin-1-yl)-7-methyl-5-oxo-1,3,4,5-tetrahydro-2H-chromeno[3,4-c]pyridine-3-carbonyl)-6-(trifluoromethyl)benzamide] |
| 1 to 10 nM | F (<3) | 1 to 10 nM | COC[C@H]1CN(c2cc(C)c3c4c(c(=O)oc3c2C)CN(C(=O)c2ccc(C(=O)NS(=O)(=O)N3CCCC3)c(O[C@H]3C[C@@H]5C[C@@H]5C3)c2F)CC4)CCN1C [Example 66, 2-(((1R,3s,5S)-bicyclo[3.1.0]hexan-3-yl)oxy)-3-fluoro-4-(8-((R)-3-(methoxymethyl)-4-methylpiperazin-1-yl)-7,10-dimethyl-5-oxo-1,3,4,5-tetrahydro-2H-chromeno[3,4-c]pyridine-3-carbonyl)-N-(pyrrolidin-1-ylsulfonyl)benzamide] |
| 1 to 10 nM | – | 1 to 10 nM | COC[C@H]1CN(c2cc(C)c3c4c(c(=O)oc3c2C)CN(C(=O)c2ccc(C(=O)NS(=O)(=O)N(C)C)c(N3CC5CC5C3)c2F)CC4)CCN1C (stereo partly drawn) [Example 72, 2-(3-azabicyclo[3.1.0]hexan-3-yl)-N-(N,N-dimethylsulfamoyl)-3-fluoro-4-(8-((R)-3-(methoxymethyl)-4-methylpiperazin-1-yl)-7,10-dimethyl-5-oxo-1,3,4,5-tetrahydro-2H-chromeno[3,4-c]pyridine-3-carbonyl)benzamide] |
| 1 to 10 nM | F (<3) | 1 to 10 nM | COC[C@H]1CN(c2ccc3c4c(c(=O)oc3c2C)CN(C(=O)c2ccc(C(=O)NS(=O)(=O)N3CCCC3)c(O[C@@H]3C[C@@H]5C[C@@H]5C3)c2F)CC4)CCN1C [Example 63, 2-(((1R,3r,5S)-bicyclo[3.1.0]hexan-3-yl)oxy)-3-fluoro-4-(8-((R)-3-(methoxymethyl)-4-methylpiperazin-1-yl)-7-methyl-5-oxo-1,3,4,5-tetrahydro-2H-chromeno[3,4-c]pyridine-3-carbonyl)-N-(pyrrolidin-1-ylsulfonyl)benzamide] |
| 100 to 1000 nM | F (<3) | 10 to 100 nM | COC[C@H]1CN(c2ccc3c4c(c(=O)oc3c2C)CN(C(=O)c2ccc(C(=O)NS(=O)(=O)N(C)C)c(OC3C[C@@H]5C[C@@H]5C3)c2)CC4)CCN1C (mixture of isomers) [Example 113, 2-(bicyclo[3.1.0]hexan-3-yloxy)-N-(N,N-dimethylsulfamoyl)-4-(8-((R)-3-(methoxymethyl)-4-methylpiperazin-1-yl)-7-methyl-5-oxo-1,3,4,5-tetrahydro-2H-chromeno[3,4-c]pyridine-3-carbonyl)benzamide] |
